According to patent US20250090603A1, “COMPOSITIONS CONTAINING BACILLAENE PRODUCING BACTERIA OR PREPARATIONS THEREOF” (Evonik Operations GmbH, priority 2019, published 2025):

Experiments:
[1] = tested on: Vibrio parahaemolyticus DSM 10027; assay type: cell-based; conditions: concluded from experiments with knock-out mutants
[2] = tested on: S. enterica subsp. enterica enteritidis DSM 14221; assay type: cell-based, Salmonella enterica

For `C/C(=C/C=C/C=C/C(C)C(=O)O)NC(=O)CC(O)\C(C)=C/C=C\C=C(C)\C=C\C=C/C=C/CNC(=O)C(O)CC(C)C` (centres unmarked) [bacillaene], the “inhibition of growth of Vibrio parahaemolyticus (in words)” value [1] was “effectively inhibit the growth” and the “inhibition of growth of Salmonella enterica (in words)” value [2] was “effectively inhibit the growth”.
